Experimental data as given in patent US6093732A, “4-hydroxyquinoline-3-carboxamides and hydrazides as antiviral agents” (Pharmacia & Upjohn Company, priority 1998, dated 2000).

Legend:
Assay type in all cases: biochemical
[1] = biological target: VZV polymerase (Varicella-zoster virus, UniProt P09252); assay: VZV polymerase assay (procedure similar to the HCMV polymerase SPA); settings: Table 1, read-out: Antiviral Selective Polymerase IC50 Values, VZV
Protocol: (§1) The HCMV polymerase assay is performed using a scintillation proximity assay (SPA) as described in several references, such as N. D. Cook, et al., Pharmaceutical Manufacturing International, pages 49-53 (1992); K. Takeuchi, Laboratory Practice, September issue (1992); U.S. Pat. No. 4,568,649 (1986); which are incorporated by reference herein. Reactions are performed in 96-well plates. The assay is conducted in 100 μl volume with 5.4 mM HEPES (pH 7.5), 11.7 mM KCl, 4.5 mM MgCl2, 0.36 mg/ml BSA, and 90 nM ^3 H-dTTP. Assays are run with and without CHAPS, (3-[(3-Cholamidopropyl)-dimethylammonio]-1-propane-sulfonate) at a final concentration of 2 mM. HCMV polymerase is diluted in enzyme dilution buffer containing 50% glycerol, 250 mM NaCl, 10 mM HEPES (pH 7.5), 100 μg/ml BSA, and 0.01% sodium azide. The HCMV polymerase, which is expressed in recombinant baculovirus-infected SF-9 cells and purified according to literature procedures, is added at 10% (or 10 μl) of the final reaction volume, i.e., 100 μl. Compounds are diluted in 50% DMSO and 10 μl are added to each well. Control wells contain an equivalent concentration of DMSO. Unless noted otherwise, reactions are initiated via the addition of 6 nM biotinylated poly(dA)-oligo(dT) template/primer to reaction mixtures containing the enzyme, substrate, and compounds of interest. Plates are incubated in a 25° C. or 37° C. H2 O bath and terminated via the addition of 40 μl/reaction of 0.5 M EDTA (pH 8) per well. Reactions are terminated within the time-frame during which substrate incorporation is linear and varied depending upon the enzyme and conditions used, i.e., 30 min. for HCMV polymerase. Ten μl of streptavidin-SPA beads (20 mg/ml in PBS/10% glycerol) are added following termination of the reaction. Plates are incubated 10 min. at 37° C., then equilibrated to room temperature, and counted on a Packard Topcount. Linear regressions are performed and IC50 's are calculated using computer software.
(§2) A modified version of the above HCMV polymerase assay is performed as described above, but with the following changes: Compounds are diluted in 100% DMSO until final dilution into assay buffer. In the previous assay, compounds are diluted in 50% DMSO. 4.5 mM dithiotherotol (DTT) is added to the polymerase buffer. […] Other viral polymerase assays are performed using procedures similar to those described above.

[2] = biological target: T1, HCMV polymerase (Human cytomegalovirus, UniProt P08546); assay: HCMV polymerase scintillation proximity assay (SPA), modified version; settings: CMV polymerase; Table 1; modified assay with 4.5 mM DTT, compounds in 100% DMSO; read-out: Antiviral Selective Polymerase IC50 Values, CMV
T1 construct: made in house; host or cells: recombinant baculovirus-infected SF-9 cells
T1 sequence (P08546 whole entry): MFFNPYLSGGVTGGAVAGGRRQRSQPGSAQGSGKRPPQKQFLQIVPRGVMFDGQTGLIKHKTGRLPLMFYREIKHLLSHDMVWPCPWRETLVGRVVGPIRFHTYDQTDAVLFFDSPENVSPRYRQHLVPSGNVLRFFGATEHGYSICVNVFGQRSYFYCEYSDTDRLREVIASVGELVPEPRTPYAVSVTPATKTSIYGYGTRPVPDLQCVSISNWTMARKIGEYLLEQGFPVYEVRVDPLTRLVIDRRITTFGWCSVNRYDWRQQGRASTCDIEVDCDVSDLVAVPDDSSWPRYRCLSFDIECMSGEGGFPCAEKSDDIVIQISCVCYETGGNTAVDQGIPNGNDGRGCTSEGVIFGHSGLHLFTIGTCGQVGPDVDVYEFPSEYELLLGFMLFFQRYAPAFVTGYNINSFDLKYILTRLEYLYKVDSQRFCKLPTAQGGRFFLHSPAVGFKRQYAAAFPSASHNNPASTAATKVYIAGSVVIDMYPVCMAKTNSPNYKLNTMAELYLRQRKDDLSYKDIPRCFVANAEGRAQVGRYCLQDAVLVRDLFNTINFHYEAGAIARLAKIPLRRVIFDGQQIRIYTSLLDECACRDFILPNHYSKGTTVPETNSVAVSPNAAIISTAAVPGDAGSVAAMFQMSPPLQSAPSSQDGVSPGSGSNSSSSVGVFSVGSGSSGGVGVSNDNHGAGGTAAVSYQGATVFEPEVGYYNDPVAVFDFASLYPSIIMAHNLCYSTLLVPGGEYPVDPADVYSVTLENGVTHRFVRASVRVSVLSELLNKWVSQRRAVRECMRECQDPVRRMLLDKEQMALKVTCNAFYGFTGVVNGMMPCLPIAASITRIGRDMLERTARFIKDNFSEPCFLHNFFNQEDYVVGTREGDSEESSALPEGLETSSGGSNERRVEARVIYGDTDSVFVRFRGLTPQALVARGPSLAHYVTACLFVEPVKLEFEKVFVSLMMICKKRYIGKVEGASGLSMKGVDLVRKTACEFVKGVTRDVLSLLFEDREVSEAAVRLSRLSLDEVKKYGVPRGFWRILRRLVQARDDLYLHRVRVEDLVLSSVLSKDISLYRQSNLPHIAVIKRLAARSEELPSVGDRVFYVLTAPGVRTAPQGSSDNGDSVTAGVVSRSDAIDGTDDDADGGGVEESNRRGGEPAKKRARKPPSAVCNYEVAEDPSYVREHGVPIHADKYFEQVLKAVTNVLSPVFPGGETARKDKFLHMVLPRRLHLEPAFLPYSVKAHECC
Outline: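 SPA measuring 3H-dTTP (90 nM) incorporation on 6 nM biotinylated poly(dA)-oligo(dT) by SF-9-expressed enzyme, pH 7.5 HEPES/KCl/MgCl2/BSA buffer with or without 2 mM CHAPS. Run at 25° C or 37° C, stopped with EDTA while linear (HCMV 30 min); IC50 from linear regression. Modified format adds 4.5 mM DTT, compounds diluted in 100% DMSO.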

[3] = biological target: HSV polymerase (Human herpesvirus 1, UniProt P04293); assay: HSV polymerase assay (procedure similar to the HCMV polymerase SPA); settings: Table 1, read-out: Antiviral Selective Polymerase IC50 Values, HSV
HSV polymerase, sequence (P04293 whole entry): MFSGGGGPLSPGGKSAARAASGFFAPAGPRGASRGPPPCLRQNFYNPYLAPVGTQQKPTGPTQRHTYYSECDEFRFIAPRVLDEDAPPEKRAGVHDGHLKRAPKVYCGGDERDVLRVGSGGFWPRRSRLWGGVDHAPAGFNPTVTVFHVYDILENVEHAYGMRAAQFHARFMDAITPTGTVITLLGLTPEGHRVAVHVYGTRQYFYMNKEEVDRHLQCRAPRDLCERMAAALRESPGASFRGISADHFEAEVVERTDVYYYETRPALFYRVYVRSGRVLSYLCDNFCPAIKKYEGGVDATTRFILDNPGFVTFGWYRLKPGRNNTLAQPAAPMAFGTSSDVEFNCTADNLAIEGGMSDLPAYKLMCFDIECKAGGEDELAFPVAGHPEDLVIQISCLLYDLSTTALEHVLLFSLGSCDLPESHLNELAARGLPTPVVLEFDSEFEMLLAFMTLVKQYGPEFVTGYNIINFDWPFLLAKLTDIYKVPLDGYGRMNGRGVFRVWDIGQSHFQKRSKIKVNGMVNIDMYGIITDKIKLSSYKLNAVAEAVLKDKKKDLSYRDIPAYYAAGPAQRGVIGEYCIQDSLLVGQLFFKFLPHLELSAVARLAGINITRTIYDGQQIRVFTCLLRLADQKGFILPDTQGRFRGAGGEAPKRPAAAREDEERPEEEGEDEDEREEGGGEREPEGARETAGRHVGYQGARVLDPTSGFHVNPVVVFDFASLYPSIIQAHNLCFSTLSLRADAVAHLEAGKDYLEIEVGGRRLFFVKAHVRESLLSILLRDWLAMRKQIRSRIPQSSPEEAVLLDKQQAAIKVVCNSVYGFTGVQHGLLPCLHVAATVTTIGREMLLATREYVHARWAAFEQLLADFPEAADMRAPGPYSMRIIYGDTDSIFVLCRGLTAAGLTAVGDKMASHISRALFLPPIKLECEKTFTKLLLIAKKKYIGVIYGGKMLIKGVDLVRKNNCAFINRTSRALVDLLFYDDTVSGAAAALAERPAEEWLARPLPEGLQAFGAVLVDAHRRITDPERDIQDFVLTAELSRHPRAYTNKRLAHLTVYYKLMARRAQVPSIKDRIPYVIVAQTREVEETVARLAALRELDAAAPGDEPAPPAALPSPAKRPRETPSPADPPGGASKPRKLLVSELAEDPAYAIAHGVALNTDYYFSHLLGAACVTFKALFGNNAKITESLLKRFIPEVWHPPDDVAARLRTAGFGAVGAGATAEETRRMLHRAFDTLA
Protocol: as §1, §2

VZV polymerase, sequence (P09252 whole entry): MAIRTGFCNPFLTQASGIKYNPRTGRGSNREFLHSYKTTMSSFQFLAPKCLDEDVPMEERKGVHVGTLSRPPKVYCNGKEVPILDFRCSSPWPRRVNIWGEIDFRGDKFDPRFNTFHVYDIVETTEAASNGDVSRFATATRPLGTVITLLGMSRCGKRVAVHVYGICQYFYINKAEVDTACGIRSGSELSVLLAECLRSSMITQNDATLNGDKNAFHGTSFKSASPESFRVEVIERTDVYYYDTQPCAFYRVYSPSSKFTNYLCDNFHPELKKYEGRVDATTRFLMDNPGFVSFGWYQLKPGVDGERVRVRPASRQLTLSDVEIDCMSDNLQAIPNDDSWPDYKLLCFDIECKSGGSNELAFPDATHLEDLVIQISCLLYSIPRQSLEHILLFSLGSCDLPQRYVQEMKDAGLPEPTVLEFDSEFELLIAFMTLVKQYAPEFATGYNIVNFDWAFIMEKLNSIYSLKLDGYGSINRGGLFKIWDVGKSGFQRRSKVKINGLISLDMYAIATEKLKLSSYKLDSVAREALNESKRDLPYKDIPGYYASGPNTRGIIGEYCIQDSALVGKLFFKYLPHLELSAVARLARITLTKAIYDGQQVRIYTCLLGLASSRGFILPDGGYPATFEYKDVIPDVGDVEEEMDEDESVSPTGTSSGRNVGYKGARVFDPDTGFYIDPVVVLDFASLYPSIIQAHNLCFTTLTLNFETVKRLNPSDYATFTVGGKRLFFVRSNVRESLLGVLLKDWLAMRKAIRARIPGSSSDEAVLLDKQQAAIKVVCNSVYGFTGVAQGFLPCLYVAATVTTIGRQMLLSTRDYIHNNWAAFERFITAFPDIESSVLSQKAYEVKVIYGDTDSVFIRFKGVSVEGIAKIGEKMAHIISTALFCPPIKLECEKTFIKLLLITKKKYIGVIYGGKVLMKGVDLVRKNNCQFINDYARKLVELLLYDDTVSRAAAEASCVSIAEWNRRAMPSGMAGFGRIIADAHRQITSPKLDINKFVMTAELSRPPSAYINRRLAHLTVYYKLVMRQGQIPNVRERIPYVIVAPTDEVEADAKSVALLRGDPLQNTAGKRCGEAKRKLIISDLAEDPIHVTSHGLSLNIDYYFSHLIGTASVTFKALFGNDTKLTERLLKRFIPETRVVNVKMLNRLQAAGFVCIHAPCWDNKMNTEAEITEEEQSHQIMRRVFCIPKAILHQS

| IC50 [1] [µM] | IC50 [2] [µM] | IC50 [3] [µM] | Compound |
| --- | --- | --- | --- |
| 0.6 | 5.2 | 3.5 | Nc1ccc2c(O)c(C(=O)NCc3ccc(Cl)cc3)cnc2c1 [Example 2, 7-Amino-N-[(4-chlorophenyl)methyl]-4-hydroxy-3-quinolinecarboxamide] |
| 0.7 | 7.6 | 2.3 | O=C(NCc1ccc(Cl)cc1)c1cnc2ccccc2c1O [Example 6, N-[(4-Chlorophenyl)methyl]-4-hydroxy-3-quinolinecarboxamide] |
| 0.7 | 4.9 | 5.5 | COc1ccc2c(O)c(C(=O)NCc3ccc(Cl)cc3)cnc2c1 [Example 7, N-[(4-Chlorophenyl)methyl]-4-hydroxy-7-methoxy-3-quinoline-carboxamide] |
| 2.5 | < 2.3 | < 2.3 | O=C(NCc1ccc(Cl)cc1)c1cnc2cc(F)ccc2c1O [Example 9, N-[(4-Chlorophenyl)methyl]-7-fluoro-4-hydroxy-3-quinolinecarboxamide] |
| 3.9 | 9.7 | 14 | O=C(NCc1ccc(Cl)cc1)c1cnc2ccc(F)cc2c1O [Example 10, N-[(4-Chlorophenyl)methyl]-6-fluoro-4-hydroxy-3-quinoline-carboxamide] |
| < 3.1 | 1.4 | 3.4 | O=C(NCc1ccc(Cl)cc1)c1cnc2c(F)cccc2c1O [Example 12, N-[(4-Chlorophenyl)methyl]-8-fluoro-4-hydroxy-3-quinoline-carboxamide] |
| < 2.3 | < 2.3 | 3 | O=C(NCc1ccc(Cl)cc1)c1cnc2ccc([N+](=O)[O-])cc2c1O [Example 13, N-[(4-Chlorophenyl)methyl]-4-hydroxy-6-nitro-3-quinoline-carboxamide] |
| 3.6 | 11.5 | 7.9 | O=C(NCc1ccc(Cl)cc1)c1cnc2c(F)c(F)c(F)c(F)c2c1O [Example 14, N-[(4-Chlorophenyl)methyl]-5,6,7,8-tetrafluoro-4-hydroxy-3-quinolinecarboxamide] |
| 13.1 | 20.8 | 22 | O=C(NCc1ccc(Cl)cc1)c1cnc2c(F)c(F)c(F)cc2c1O [Example 15, N-[(4-Chlorophenyl)methyl]-6,7,8-trifluoro-4-hydroxy-3-quinolinecarboxamide] |
| 1.3 | 2.7 | 2.8 | O=C(NNc1ccc(Cl)cc1)c1cnc2c(F)c(F)c(F)cc2c1O [Example 16, 6,7,8-Trifluoro-4-hydroxy-3-quinolinecarboxylic acid 2-(4-chlorophenyl)hydrazide] |
| 8.4 | 13.5 | 18.5 | CC(=O)Nc1ccc2c(O)c(C(=O)NCc3ccc(Cl)cc3)cnc2c1 [Example 25, 7-(Acetylamino)-N-[(4-chlorophenyl)methyl]-4-hydroxy-3-quinolinecarboxamide] |
| 14 | 17 | 25 | CS(=O)(=O)Nc1ccc2c(O)c(C(=O)NCc3ccc(Cl)cc3)cnc2c1 [Example 26, N-[(4-Chlorophenyl)methyl]-4-hydroxy-7-[(methylsulfonyl)-amino]-3-quinolinecarboxamide] |
| 8.3 | 18 | 19.7 | Nc1ccc2ncc(C(=O)NCc3ccc(Cl)cc3)c(O)c2c1 [Example 28, 6-Amino-N-[(4-chlorophenyl)methyl]-4-hydroxy-3-quinoline-carboxamide] |
| 25.2 | 34.1 | 70.6 | CS(=O)(=O)Nc1ccc2ncc(C(=O)NCc3ccc(Cl)cc3)c(O)c2c1 [Example 29, N-[(4-Chlorophenyl)methyl]-4-hydroxy-6-[(methylsulfonyl)-amino]-3-quinolinecarboxamide] |
| 7.5 | 10.6 | 14.3 | CN(C)c1ccc2ncc(C(=O)NCc3ccc(Cl)cc3)c(O)c2c1 [Example 30, N-[(4-Chlorophenyl)methyl]-6-(dimethylamino)-4-hydroxy-3-quinolinecarboxamide] |
| 26 | 26.2 | 81.5 | CC(=O)Nc1ccc2ncc(C(=O)NCc3ccc(Cl)cc3)c(O)c2c1 [Example 31, 6-(Acetylamino)-N-[(4-chlorophenyl)methyl]-4-hydroxy-3-quinolinecarboxamide] |
| 53.8 | 22 | > 100 | O=C(NCc1ccc(Cl)cc1)c1cnc2cc(-n3cccc3)ccc2c1O [Example 32, N-[(4-Chlorophenyl)methyl]-4-hydroxy-7-(1-pyrrolyl)-3-quinolinecarboxamide] |
| 0.39 | < 0.78 | 0.64 | O=C(NCc1ccc(Cl)cc1)c1cnc2c(F)cc(C#CCO)cc2c1O [Example 53, N-[(4-Chlorophenyl)methyl]-8-fluoro-4-hydroxy-6-(3-hydroxy-1-propynyl)-3-quinolinecarboxamide] |
| 0.16 | 0.17 | 0.43 | O=C(NCc1ccc(Cl)cc1)c1cnc2c(F)cc(-c3cccs3)cc2c1O [Example 75, N-[(4-Chlorophenyl)methyl]-8-fluoro-4-hydroxy-6-(2-thiophenyl)-3-quinolinecarboxamide] |
| 0.09 | 0.14 | 0.2 | O=C(NCc1ccc(Cl)cc1)c1cnc2c(F)cc(CCCCO)cc2c1O [Example 99, N-(4-Chlorobenzyl)-8-fluoro-4-hydroxy-6-(4-hydroxybutyl)-3-quinolinecarboxamide] |
| 9.6 | 10.3 | 16.4 | CC(C)(O)CCc1cc(F)c2ncc(C(=O)NCc3ccc(Cl)cc3)c(O)c2c1 [Example 106, N-(4-Chlorobenzyl)-8-fluoro-4-hydroxy-6-(3-hydroxy-3-methylbutyl)-3-quinolinecarboxamide] |
| 0.2 | 0.67 | 0.66 | COc1cc(C#CCO)cc2c(O)c(C(=O)NCc3ccc(Cl)cc3)cnc12 [Example 118, N-(4-Chlorobenzyl)-4-hydroxy-6-(3-hydroxy-1-propynyl)-8-methoxy-3-quinolinecarboxamide] |
| 0.57 | 1.5 | 0.73 | COCC#Cc1cc(OC)c2ncc(C(=O)NCc3ccc(Cl)cc3)c(O)c2c1 [Example 119, N-(4-Chlorobenzyl)-4-hydroxy-8-methoxy-6-(3-methoxy-1-propynyl)-3-quinolinecarboxamide] |
| 0.08 | 0.27 | 0.25 | COc1cc(CCCO)cc2c(O)c(C(=O)NCc3ccc(Cl)cc3)cnc12 [Example 120, N-(4-Chlorobenzyl)-4-hydroxy-6-(3-hydroxypropyl)-8-methoxy-3-quinolinecarboxamide] |
| 0.39 | 0.25 | 0.6 | O=C(NCc1ccc(Cl)cc1)c1cnc2c(OCCO)cc(CCCO)cc2c1O [Example 124, N-(4-Chlorobenzyl)-4-hydroxy-8-(2-hydroxyethoxy)-6-(3-hydroxypropyl)-3-quinolinecarboxamide] |
| 1.7 | 0.87 | 2.5 | CC(C)(CCO)c1ccc2ncc(C(=O)NCc3ccc(Cl)cc3)c(O)c2c1 [Example 125, N-(4-Chlorobenzyl)-4-hydroxy-6-(3-hydroxy-1,1-dimethylpropyl)-3-quinolinecarboxamide] |
| 2.2 | 4 | 3.2 | N#C/C=C/c1cc(F)c2ncc(C(=O)NCc3ccc(Cl)cc3)c(O)c2c1 [Example 133, N-(4-Chlorobenzyl)-6-[(E)-2-cyanoethenyl]-8-fluoro-4-hydroxy-3-quinolinecarboxamide] |
